Measurements published in patent US7825256B2, “Inducible nitric oxide synthase dimerization inhibitors” (Kalypsys, Inc., priority 2004, dated 2010).

Biological target: T1, hiNOS (Homo sapiens, UniProt P35228)
T1 construct: expressed in transfected cells; host or cells: HEK293
Test: DAN assay, hiNOS expressed in transiently transfected HEK293 cells
Assay type: cell-based
Conditions: HEK293 cells transiently transfected with hiNOS
Description: The source of nitric oxide synthase (NOS) enzyme can be generated in several ways including induction of endogenous iNOS using cytokines and/or lipopolysaccharide (LPS) in various cell types known in the art. Alternatively, the gene encoding the enzyme can be cloned and the enzyme can be generated in cells via heterologous expression from a transient or stable expression plasmid with suitable features for protein expression as are known in the art. Enzymatic activity (nitric oxide production) is calcium independent for iNOS, while the constitutive NOS isoforms, nNOS and eNOS, become active with the addition of various cofactors added to cellular media or extract as are well known in the art. Enzymes specified in Table 1 were expressed in HEK293 cells transiently transfected with the indicated NOS isoform.
A major metabolic pathway for nitric oxide is to nitrate and nitrite, which are stable metabolites within tissue culture, tissue, plasma, and urine (S Moncada, A Higgs, N Eng J Med 329, 2002 (1993)).
The level of nitrate or nitrite in the specimen can be quantified by any method known in the art which provides adequate sensitivity and reproducibility. A variety of protocols have also been described for detecting and quantifying nitrite and nitrate levels in biological fluids by ion chromatography (e.g., S A Everett et al., J. Chromatogr. 706, 437 (1995); J M Monaghan et al., J. Chromatogr. 770, 143 (1997)), high-performance liquid chromatography (e.g., M Kelm et al., Cardiovasc. Res. 41, 765 (1999)), and capillary electrophoresis (M A Friedberg et al., J. Chromatogr. 781, 491 (1997)). For example, 2,3-diaminonaphthalene reacts with the nitrosonium cation that forms spontaneously from NO to form the fluorescent product […]. Using 2,3-diaminonaphthalene (“DAN”), researchers have developed a rapid, quantitative fluorometric assay that can detect from 10 nM to 10 μM nitrite and is compatible with a multi-well microplate format. […] DAN reacts with nitrite ion and gives fluorescent […] (M C Carré et al., Analysis 27, 835-838 (1999)). Table 1 provides the test results of various compounds of the subject invention using the DAN assay.
A specimen can be processed prior to determination of nitrate or nitrite as required by the quantification method, or in order to improve the results, or for the convenience of the investigator. For example, processing can involve centrifuging, filtering, or homogenizing the sample. If the sample is whole blood, the blood can be centrifuged to remove cells and the nitrate or nitrite assay performed on the plasma or serum fraction. If the sample is tissue, the tissue can be dispersed or homogenized by any method known in the art prior to determination of nitrate or nitrite. It may be preferable to remove cells and other debris by centrifugation or another method and to determine the nitrate or nitrite level using only the fluid portion of the sample, or the extracellular fluid fraction of the sample. The sample can also be preserved for later determination, for example by freezing of urine or plasma samples. When appropriate, additives may be introduced into the specimen to preserve or improve its characteristics for use in the nitrate or nitrite assay.
The “level” of nitrate, nitrite, or other NO-related product usually refers to the concentration (in moles per liter, micromoles per liter, or other suitable units) of nitrate or nitrite in the specimen, or in the fluid portion of the specimen. However, other units of measure can also be used to express the level of nitrate or nitrite. For example, an absolute amount (in micrograms, milligrams, nanomoles, moles, or other suitable units) can be used, particularly if the amount refers back to a constant amount (e.g., grams, kilograms, milliliters, liters, or other suitable units) of the specimens under consideration. A number of commercially available kits can be used.

Structure (SMILES)	EC50
CCOC(=O)C1CCC(C(=O)NCCc2ccc3c(c2)OCO3)N1c1nc(-n2ccnc2)ns1 (racemic) [Example 94, 5-(2-Benzo[1,3]dioxol-5-yl-ethylcarbamoyl)-1-(3-imidazol-1-yl-[1,2,4]thiadiazol-5-yl)-pyrrolidine-2-carboxylic acid ethyl ester]	< 1000 nM
Cc1cc(C2CCCN2CCNCc2ccc3c(c2)OCO3)nc(-n2ccnc2)n1 (single isomer, unassigned) [Example 132, Benzo[1,3]dioxol-5-ylmethyl-{2-[2-(2-imidazol-1-yl-6-methyl-pyrimidin-4-yl)-pyrrolidin-1-yl]-ethyl}-amine]	< 1000 nM
CN(CCCN)c1nc(-n2ccnc2)ns1 [Example 6, N-1-(3-Imidazol-1-yl-[1,2,4]thiadiazol-5-yl)-N-1-methyl-propane-1,3-diamine]	> 50000 nM
CN(CCCNCc1ccc(Cl)cc1)c1nc(-n2ccnc2)ns1 [Example 7, N′-(4-Chloro-benzyl)-N-(3-imidazol-1-yl-[1,2,4]thiadiazol-5-yl)-N-methyl-propane-1,3-diamine]	< 50000 nM
Cc1cc(CNC(=O)CNCc2ccc3c(c2)OCO3)nc(-n2ccnc2)n1 [Example 14]	< 1000 nM
COc1ccc(CNCCCN(C)c2nc(-n3ccnc3)ns2)c(OC)c1 [Example 17, N′-(2,4-Dimethoxy-benzyl)-N-(3-imidazol-1-yl-[1,2,4]thiadiazol-5-yl)-N-methyl-propane-1,3-diamine]	< 1000 nM
CN(CCCNCc1cc2ccccc2n1C)c1nc(-n2ccnc2)ns1 [Example 19, N-(3-Imidazol-1-yl-[1,2,4]thiadiazol-5-yl)-N-methyl-N′-(1-methyl-1H-indol-2-ylmethyl)-propane-1,3-diamine]	> 50000 nM
CN(CCCNCc1cccs1)c1nc(-n2ccnc2)ns1 [Example 20, N-(3-Imidazol-1-yl-[1,2,4]thiadiazol-5-yl)-N-methyl-N′-thiophen-2-ylmethyl-propane-1,3-diamine]	> 50000 nM
CN(CCCNCc1ccncc1)c1nc(-n2ccnc2)ns1 [Example 21, N-(3-Imidazol-1-yl-[1,2,4]thiadiazol-5-yl)-N-methyl-N′-pyridin-4-ylmethyl-propane-1,3-diamine]	> 50000 nM
O=C(NCCc1ccc2c(c1)OCO2)[C@H]1CCCCN1c1nc(-n2ccnc2)ns1 [Example 26, (R)-1-(3-Imidazol-1-yl-[1,2,4]thiadiazol-5-yl)-piperidine-2-carboxylic acid (2-benzo[1,3]dioxol-5-yl-ethyl)-amide]	< 1000 nM
CN(CC(=O)NCCc1ccc2c(c1)OCO2)c1nc(-n2ccnc2)ns1 [Example 30, N-(2-Benzo[1,3]dioxol-5-yl-ethyl)-2-[(3-imidazol-1-yl-[1,2,4]thiadiamol-5-yl)-methyl-amino]-acetamide]	< 1000 nM
c1cn(-c2nsc(N(CCCNCc3ccc4c(c3)OCO4)C3CC3)n2)cn1 [Example 32, N′-Benzo[1,3]dioxol-5-ylmethyl-N-cyclopropyl-N-(3-imidazol-1-yl-[1,2,4]thiadiazol-5-yl)-propane-1,3-diamine]	< 1000 nM
c1cn(-c2nsc(N3CCN(Cc4ccc5c(c4)OCO5)CC3)n2)cn1 [Example 33, 1-Benzo[1,3]dioxol-5-ylmethyl-4-(3-imidazol-1-yl-[1,2,4]thiadiazo-5-yl)-piperazine]	< 50000 nM
CN(CCCNS(=O)(=O)c1ccc(OC(F)(F)F)cc1)c1nc(-n2ccnc2)ns1 [Example 34, N-{3-[(3-Imidazol-1-yl-[1,2,4]thiadiazol-5-yl)-methyl-amino]-propyl}-4-trifluoromethoxy-benzenesulfonamide]	> 50000 nM

Continued, values first:

EC50	Structure (SMILES)
< 1000 nM	Cc1cc(C(C)N2CCC[C@@H]2C(=O)NCc2ccc3c(c2)OCO3)nc(-n2ccnc2)n1 (mixture of isomers) [Example 121, 1-[1-(2-Imidazol-1-yl-6-methyl-pyrimidin-4-yl)-ethyl]-pyrrolidine-2-carboxylic acid (benzo[1,3]dioxol-5-ylmethyl)-amide]
< 1000 nM	Cc1cc(C(C)NCCN(C)Cc2ccc3c(c2)OCO3)nc(-n2ccnc2)n1 (single isomer, unassigned) [Example 130, N-Benzo[1,3]dioxol-5-ylmethyl-N′-[1-(2-imidazol-1-yl-6-methyl-pyrimidin-4-yl)-ethyl]-N-methyl-ethane-1,2-diamine]
< 1000 nM	Cc1cc(C(C)NCCN(C)Cc2ccc3c(c2)OCO3)nc(-n2ccnc2)n1 (single isomer, unassigned) [Example 131, N-Benzo[1,3]dioxol-5-ylmethyl-N-[1-(2-imidazol-1-yl-6-methyl-pyrimidin-4-yl)-ethyl]-N-methyl-ethane-1,2-diamine]
< 1000 nM	COc1ccc(CNCCCN(C)c2nc(-n3ccnc3)ns2)cc1 [Example 8, N-(3-Imidazol-1-yl-[1,2,4]thiadiazol-5-yl)-N′-(4-methoxy-benzyl)-N-methyl-propane-1,3-diamine]
> 50000 nM	CN(CCCNCc1ccc(F)c(F)c1)c1nc(-n2ccnc2)ns1 [Example 9, N′-(3,4-Difluro-benzyl)-N-(3-imidazol-1-yl-[1,2,4]thiadiazol-5-yl)-N-methyl-propane-1,3-diamine]
> 50000 nM	CN(CCCNCc1c(Cl)cccc1Cl)c1nc(-n2ccnc2)ns1 [Example 10, N′-(2,6-Dichloro-benzyl)-N-(3-imidazol-1-yl-[1,2,4]thiadiazol-5-yl)-N-methyl-propane-1,3-diamine]
> 50000 nM	CN(CCCNCc1ccc(C(F)(F)F)cc1)c1nc(-n2ccnc2)ns1 [Example 11, N-(3-Imidazol-1-yl-[1,2,4]thiadiazol-5-yl)-N-methyl-N′-(4-trifluoromethyl-benzyl)-propane-1,3-diamine]
< 1000 nM	CN(CCCNCc1ccc2c(c1)OCCO2)c1nc(-n2ccnc2)ns1 [Example 16, N′-(2,3-Dihydro-benzo[1,4]dioxin-6-ylmethyl)-N-(3-imidazol-1-yl-[1,2,4]thiadiazol-5-yl)-N-methyl-propane-1,3-diamine]
> 50000 nM	CN(CCCNCc1ccc2[nH]ccc2c1)c1nc(-n2ccnc2)ns1 [Example 18, N-(3-Imidazol-1-yl-[1,2,4]thiadiazol-5-yl)-N′-(1H-indol-5-ylmethyl)-N-methyl-propane-1,3-diamine]
> 50000 nM	COc1ccc(CNCCCN(C)c2nc(-n3ccnc3)ns2)cc1OC [Example 22, N′-(3,4-Dimethoxy-benzyl)-N-(3-imidazol-1-yl-[1,2,4]thiadiazol-5-yl)-N-methyl-propane-1,3-diamine]
< 1000 nM	C[C@H](Nc1nc(-n2ccnc2)ns1)C(=O)NCCc1ccc2c(c1)OCO2 [Example 23, (S)—N-(2-Benzo[1,3]dioxol-5-yl-ethyl)-2-(3-imidazol-1-yl-[1,2,4]thiadiazol-5-ylamino)-propionamide]
< 1000 nM	CC(C)[C@H](Nc1nc(-n2ccnc2)ns1)C(=O)NCCc1ccc2c(c1)OCO2 [Example 24, (S)—N-(2-Benzo[1,3]dioxol-5-yl-ethyl)-2-(3-imidazol-1-yl-[1,2,4]thiadiazol-5-ylamino)-3-methyl-butyramide]
> 50000 nM	O=C(NCCc1ccc2c(c1)OCO2)[C@@H]1CCCN1c1nc(-n2ccnc2)ns1 [Example 25, (S)-1-(3-Imidazol-1-yl-[1,2,4]thiadiazol-5-yl)-pyrrolidine-2-carboxylic acid (2-benzo[1,3]dioxol-5-yl-ethyl)-amide]
< 1000 nM	O=C(NCCc1ccc2c(c1)OCO2)[C@@H]1C[C@@H](O)CN1c1nc(-n2ccnc2)ns1 [Example 27, (2S,4R)-4-Hydroxy-1-(3-imidazol-1-yl-[1,2,4]thiadiazol-5-yl)-pyrrolidine-2-carboxylic acid (2-benzo[1,3]dioxol-5-yl-ethyl)amide]
< 1000 nM	CCCN(CCCNCc1ccc2c(c1)OCO2)c1nc(-n2ccnc2)ns1 [Example 31, N′-Benzo[1,3]dioxol-5-ylmethyl-N-(3-imidazol-1-yl-[1,2,4]thiadiazol-5-yl)-N-propyl-propane-1,3-diamine]
